In article PMC7204994 (Frontiers in Pharmacology, 2020):

What was measured:
LIMK1 [1] = molecular target: T1, LIMK1 (Homo sapiens, UniProt P53667); assay: in vitro GST-cofilin phosphorylation by recombinant LIMK1, Western blot, […] compound; format: biochemical; design: recombinant human LIMK1 (Millipore #14-656)
LIMK1 [2] = molecular target: T1, LIMK1; assay: cell-free LIMK1 biochemical assay; conditions: cited from earlier work

T1 sequence (P53667 whole entry): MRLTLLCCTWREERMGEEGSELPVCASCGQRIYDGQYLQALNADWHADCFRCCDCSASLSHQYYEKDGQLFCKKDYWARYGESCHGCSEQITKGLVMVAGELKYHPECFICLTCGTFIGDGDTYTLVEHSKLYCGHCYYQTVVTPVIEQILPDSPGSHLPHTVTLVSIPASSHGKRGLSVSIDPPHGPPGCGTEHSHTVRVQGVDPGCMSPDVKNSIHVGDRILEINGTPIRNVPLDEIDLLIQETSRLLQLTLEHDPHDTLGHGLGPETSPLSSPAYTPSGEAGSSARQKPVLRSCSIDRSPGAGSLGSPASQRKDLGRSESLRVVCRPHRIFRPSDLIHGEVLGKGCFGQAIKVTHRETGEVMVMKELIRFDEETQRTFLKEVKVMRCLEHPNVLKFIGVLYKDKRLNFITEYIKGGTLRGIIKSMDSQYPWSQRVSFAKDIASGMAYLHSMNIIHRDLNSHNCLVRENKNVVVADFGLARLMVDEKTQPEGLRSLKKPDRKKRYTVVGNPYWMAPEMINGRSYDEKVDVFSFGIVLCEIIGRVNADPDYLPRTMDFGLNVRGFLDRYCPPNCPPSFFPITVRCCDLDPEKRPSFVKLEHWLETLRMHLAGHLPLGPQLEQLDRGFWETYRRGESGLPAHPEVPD

Row | SMILES | in vitro GST-cofilin phosphorylation by recombinant LIMK1, Western blot, 10 μM c (LIMK1 [1]) | IC50 (LIMK1 [2]) [µM]
1 | Cn1cc(-c2[nH]c3cc(NC(=O)C(N)C4CCCCC4)cc4c3c2C=NNC4=O)cn1 (centres unmarked) [PF0477736] | showed that PF0477736 is indeed able to directly inhibit LIMK | 
2 | Cc1c[nH]c2ncnc(-c3ccc(NC(=O)N(CCN)c4ccc(Cl)cc4)c(F)c3)c12 [SR10905, 1-(2-aminoethyl)-1-(4-chlorophenyl)-3-(2-fluoro-4-(5-methyl-7H-pyrrolo[2,3-d]pyrimidin-4-yl)phenyl)urea] |  | 0.015
